Measurements published in patent publication US6737383B1, “Herbicidal oxadiazolidines” (priority 1999, dated 2004).

Key:
sourgrass = experiment: Test D sourgrass; format: in vivo, Trichachne insularis; conditions: Preemergence, 0 to 100 scale
Description: Seeds, tubers, or plant parts of Alexandergrass (Brachiaria plantaginea), bermuda-grass (Cynodon dactylon), common pursiane (Portulaca oleracea), common ragweed (Ambrosia elatior), common groundsel (Senecio vulgaris), dallisgrass (Paspalum dilatatum), goosegrass (Eleusine indica), guineagrass (Panicum maximum), itchgrass (Rottboellia exaltata), Johnson grass (Sorghum halepense), large crabgrass (Digitaria sanguinalis), pitted morningglory (Ipomoea lacunosa), purple nutsedge (Cyperus rotundus), sandbur (Cenchrus echinatus), sourgrass (Trichachne insularis), Spanishneedles (Bidens bipinnata), surinam grass (Brachiaria decumbens) and tall mallow (Malva sylvestris) were planted into greenhouse pots of flats containing greenhouse planting medium. Plant species were grown in separate pots or individual compartments. Preemergence applications were made within one day of planting the seed or plant part.
Test chemicals were formulated in a non-phytotoxic solvent mixture which included a surfactant and applied preemergence to the surface of the pot containing seeds in a sandy loam soil. Untreated control pots and treated pots were placed in the greenhouse for growth and visually evaluated for injury 14 to 21 days after herbicide application. Plant response ratings, summarized in Table C, are based on a 0 to 100 scale where 0 is no injury and 100 is complete control. A dash (−) response means no test result.

redroot pigweed = experiment: Test E redroot pigweed; format: in vivo, Amaranthus retroflexus; conditions: Postemergence
Protocol: (§1) Compounds evaluated in this test were formulated in a non-phytotoxic solvent mixture which included a surfactant and applied to plants that were in the 1- to 4-leaf stage (postemergence application). A mixture of sandy loam soil and greenhouse potting mix in a 60:40 ratio was used for the postemergence test.
(§2) Plantings of these crops and weed species were adjusted to produce plants of appropriate size for the postemergence test. All plant species were grown using normal greenhouse practices. Crop and weed species include annual bluegrass (Poa annua), blackgrass (Alopecurus myosuroides), black nightshade (Solanum nigra), chickweed (Stellaria media), common poppy (Papaver rhoeas), deadnettle (Lamium amplexicaule), downy brome (Bromus tectorum), field violet (Viola arvensis), galium (Galium aparine), green foxtail (Setaria viridis), Italian ryegrass (Lolium multiflorum), jointed goatgrass (Aegilops cylindrica), kochia (Kochia scoparia), lambsquarters (Chenopodium album), littleseed canarygrass (Phalaris minor), rape (Brassica napus), redroot pigweed (Amaranthus retroflexus), Russian thistle (Salsola kali), scentless chamomile (Matricaria inodora), spring barley (Hordeum vulgare), sugar beet (Beta vulgaris), sunflower (Helianthus annuus), ivyleaf speedwell (Veronica hederaefolia), spring wheat (Triticum aestivum), winter wheat (Triticum aestivum), wild buckwheat (Polygonum convolvulus), wild mustard (Sinapis arvensis), wild oat (Avena fatua), windgrass (Apera spica-venti) and winter barley (Hordeum vulgare).
(§3) Treated plants and untreated controls were maintained in a greenhouse for approximately 21 to 28 days, after which all treated plants were compared to untreated controls and visually evaluated. […] A dash response (-) means no test result.

wild buckwheat = experiment: Test E wild buckwheat; format: in vivo, Polygonum convolvulus; conditions: Postemergence
Protocol: as §1, §2, §3

wild mustard = experiment: Test E wild mustard; format: in vivo, Sinapis arvensis; conditions: Preemergence
ivyleaf speedwell = experiment: Test E postemergence ivyleaf speedwell; format: in vivo, Veronica hederaefolia
Protocol: as §1, §2, §3

scentless chamomile = experiment: Test E scentless chamomile; format: in vivo, Matricaria inodora; conditions: Preemergence
[1] = Rate 250 g/ha, 0 to 100 scale (0 no effect, 100 complete control)
[2] = Rate 62 g/ha, 0 to 100 scale, 0 no effect, 100 complete control
[3] = Rate 125 g/ha, 0 to 100 scale (0 no effect, 100 complete control)

## Cc1ccccc1-n1c(=O)on(C(=O)N(c2ccc(F)cc2)C(C)C)c1=O [Compound 4]
sourgrass; Rate 16 g/ha, 0 no injury, 100 complete control
  Plant response rating, Sourgrass: 50
sourgrass; Rate 32 g/ha, 0 no injury, 100 complete control
  Plant response rating, Sourgrass: 65
sourgrass; Rate 64 g/ha, 0 no injury, 100 complete control
  Sourgrass plant response rating: 90
sourgrass; Rate 125 g/ha, 0 no injury, 100 complete control
  Sourgrass plant response rating: 100
sourgrass; Rate 250 g/ha
  Plant response rating, Sourgrass: 100
sourgrass; Rate 500 g/ha
  Plant response rating, Sourgrass: 100

## C=CCn1c(=O)on(C(=O)N(c2ccccc2)C(C)C)c1=O [Compound 93]
Redroot pigweed; Rate 62 g/ha, 0 to 100 scale
  Plant response rating, Redroot pigweed: 0
Redroot pigweed; Rate 125 g/ha, 0 to 100 scale
  Plant response rating, Redroot pigweed: 0
Redroot pigweed; [1]
  Plant response rating, Redroot pigweed: 0
Wild buckwheat; Rate 62 g/ha, 0 to 100 scale
  Plant response rating, Wild buckwheat: 0
Wild buckwheat; Rate 125 g/ha, 0 to 100 scale
  Plant response rating, Wild buckwheat: 0
Wild buckwheat; [1]
  Plant response rating, Wild buckwheat: 0
Wild mustard; [2]
  Plant response rating, Wild mustard: 30
Wild mustard; [3]
  Plant response rating, Wild mustard: 65
Wild mustard; Rate 250 g/ha, 0 to 100 scale
  Plant response rating, Wild mustard: 80
Ivyleaf speedwell; Rate 62 g/ha, 0 to 100 scale
  Plant response rating, Veronica hedera: 0
Ivyleaf speedwell; Rate 125 g/ha, 0 to 100 scale
  Plant response rating, Veronica hedera: 0
Ivyleaf speedwell; [1]
  Plant response rating, Veronica hedera: 0

## CCn1c(=O)on(C(=O)N(c2ccc(Cl)cc2)C(C)C)c1=O [Compound 108]
Redroot pigweed; Rate 62 g/ha, 0 to 100 scale
  Plant response rating, Redroot pigweed: 5
Redroot pigweed; Rate 125 g/ha, 0 to 100 scale
  Plant response rating, Redroot pigweed: 20
Redroot pigweed; [1]
  Plant response rating, Redroot pigweed: 30
Wild buckwheat; Rate 62 g/ha, 0 to 100 scale
  Plant response rating, Wild buckwheat: 0
Wild buckwheat; Rate 125 g/ha, 0 to 100 scale
  Plant response rating, Wild buckwheat: 20
Wild buckwheat; [1]
  Plant response rating, Wild buckwheat: 10
Wild mustard; [2]
  Plant response rating, Wild mustard: 50
Wild mustard; [3]
  Plant response rating, Wild mustard: 90
Wild mustard; Rate 250 g/ha, 0 to 100 scale
  Plant response rating, Wild mustard: 65
Scentless chamomile; [2]
  Plant response rating, Scentless chamo: 50
Scentless chamomile; [3]
  Plant response rating, Scentless chamo: 60
Scentless chamomile; Rate 250 g/ha, 0 to 100 scale
  Plant response rating, Scentless chamo: 80
Ivyleaf speedwell; Rate 62 g/ha, 0 to 100 scale
  Plant response rating, Veronica hedera: 0
Ivyleaf speedwell; Rate 125 g/ha, 0 to 100 scale
  Plant response rating, Veronica hedera: 10
Ivyleaf speedwell; [1]
  Plant response rating, Veronica hedera: 40
